This note sets out measurements from patent US20090197897A1, “Novel Oxadiazole Derivatives and Their Use as Positive Allosteric Modulators of Metabotropic Glutamate Receptors” (Addex Pharma SA, priority 2005, published 2009).

One test deals with T1, rat mGluR5 (Rattus norvegicus, UniProt P31424).
T1 construct: expressed in transfected cells
Kind of test: mGluR5 assay on HEK-expressing rat mGluR5 (fluorescent cell based Ca2+ mobilization assay). As to conditions: HEK-293 cells stably expressing rat mGluR5; no co-addition of glutamate; mean of at least three independent experiments in duplicate; read-out: Ca++ Flux (mean EC50). In outline:
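HEK-293 cells stably expressing rat mGluR5, Fluo-4 loaded 60 min, in HEPES buffer pH 7.4 with sulfinpyrazone; compound (0.01 to 60 μM, 0.3% DMSO) added alone, no glutamate co-addition, and Ca2+ fluorescence followed 3 min by FLIPR. Duplicate points; EC50 from four-parameter logistic fit, mean of at least three experiments.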
In general terms: Calcium assays in cells follow changes in intracellular calcium, usually with a dye or a luminescent sensor.

Test [1] deals with amphetamine-induced locomotor activation in mice. Kind of test: Amphetamine model of schizophrenia (amphetamine-induced locomotor activity). Type of test: in vivo. As to conditions: 30 & 50 mg/kg ip, 30 min before amphetamine 3.0 mg/kg s.c., 60 min. The text has this: Amphetamine-induced increases in locomotor ambulation are well known and are widely used as a model of the positive symptoms of schizophrenia. This model is based on evidence that amphetamine increases motor behaviors and can induce a psychotic state in humans (Yui et al. (2000) Ann NY Acad Sci 914:1-12). Further, it is well known that amphetamine-induced increases in locomotor activity are blocked by antipsychotics drugs that are effective in the treatment of schizophrenia (Arnt (1995) Eur J Pharmacol 283:55-62). […]
Assessment of locomotor (ambulatory) activity: The effects of compounds on amphetamine-induced locomotor activation in mice were tested. […] Locomotor activity (ambulations) was monitored by a videotracking system (VideoTrack, Viewpoint, Champagne au Mont d'Or, France) that recorded the ambulatory movements of mice. […] Mice were placed into the locomotor boxes immediately after the amphetamine injection and their locomotor activity, defined as the distance traveled in centimeters (cm), was measured for 60 minutes. […]
Statistical analyses: Statistical analyses were performed using GraphPad PRISM statistical software (GraphPad, San Diego, Calif., USA). Data were analyzed using one-way analysis of variance (ANOVA) followed by post-hoc Bonferroni-corrected multiple comparisons, where appropriate. […]

The target of another test is T2, mGluR5 (Rattus norvegicus, UniProt P31424).
T2 construct: positive allosteric modulators of mGluR5 receptors in native preparations; endogenous in cells; host or cells: primary cortical astrocytes from Sprague-Dawley rat embryos (day 16 to 19)
Kind of test: mGluR5 binding assay ([3H]-MPEP, rat brain membranes). As to conditions: 3 nM [3H]-MPEP, 1 h at 4° C. The text has this:
Activity of compounds of the invention was examined following a radioligand binding technique using whole rat brain and tritiated 2-methyl-6-(phenylethynyl)-pyridine ([^3H]-MPEP) as a ligand following similar methods than those described in Gasparini et al. (2002) Bioorg. Med. Chem. Lett. 12:407-409 and in Anderson et al. (2002) J. Pharmacol. Exp. Ther. 303 (3) 1044-1051.
Cortices were dissected out from brains of 200-300 g Sprague-Dawley rats (Charles River Laboratories, L'Arbresle, France). Tissues were homogenized in 10 volumes (vol/wt) of ice-cold 50 mM Hepes-NaOH (pH 7.4) using a Polytron disrupter (Kinematica AG, Luzern, Switzerland) and centrifuged for 30 min at 40,000 g. (4° C.). […] Protein concentration was determined by the Bradford method (Bio-Rad protein assay, Reinach, Switzerland) with bovine serum albumin as standard.
Membranes were thawed and resuspended in binding buffer containing 20 mM HEPES-NaOH, 3 mM MgCl2, 3 mM CaCl2, 100 mM NaCl, pH 7.4. […] Radioactivity was determined by liquid scintillation spectrometry using a 96-well plate reader (TopCount, Perkin-Elmer, Downers Grove, USA).
The inhibition curves were generated using the Prism GraphPad program (Graph Pad Software Inc, San Diego, USA). […] The mean of IC50 obtained from at least three independent experiments of selected molecules performed in duplicate were calculated.

A value given as a limit tells only on which side of the number the result lay.

In general, EC50 refers to the concentration that produces a half-maximal response. The IC50 is the concentration at which inhibition is half-maximal.

T1 sequence (P31424 21-1171 isoform P31424-2 limits assumed): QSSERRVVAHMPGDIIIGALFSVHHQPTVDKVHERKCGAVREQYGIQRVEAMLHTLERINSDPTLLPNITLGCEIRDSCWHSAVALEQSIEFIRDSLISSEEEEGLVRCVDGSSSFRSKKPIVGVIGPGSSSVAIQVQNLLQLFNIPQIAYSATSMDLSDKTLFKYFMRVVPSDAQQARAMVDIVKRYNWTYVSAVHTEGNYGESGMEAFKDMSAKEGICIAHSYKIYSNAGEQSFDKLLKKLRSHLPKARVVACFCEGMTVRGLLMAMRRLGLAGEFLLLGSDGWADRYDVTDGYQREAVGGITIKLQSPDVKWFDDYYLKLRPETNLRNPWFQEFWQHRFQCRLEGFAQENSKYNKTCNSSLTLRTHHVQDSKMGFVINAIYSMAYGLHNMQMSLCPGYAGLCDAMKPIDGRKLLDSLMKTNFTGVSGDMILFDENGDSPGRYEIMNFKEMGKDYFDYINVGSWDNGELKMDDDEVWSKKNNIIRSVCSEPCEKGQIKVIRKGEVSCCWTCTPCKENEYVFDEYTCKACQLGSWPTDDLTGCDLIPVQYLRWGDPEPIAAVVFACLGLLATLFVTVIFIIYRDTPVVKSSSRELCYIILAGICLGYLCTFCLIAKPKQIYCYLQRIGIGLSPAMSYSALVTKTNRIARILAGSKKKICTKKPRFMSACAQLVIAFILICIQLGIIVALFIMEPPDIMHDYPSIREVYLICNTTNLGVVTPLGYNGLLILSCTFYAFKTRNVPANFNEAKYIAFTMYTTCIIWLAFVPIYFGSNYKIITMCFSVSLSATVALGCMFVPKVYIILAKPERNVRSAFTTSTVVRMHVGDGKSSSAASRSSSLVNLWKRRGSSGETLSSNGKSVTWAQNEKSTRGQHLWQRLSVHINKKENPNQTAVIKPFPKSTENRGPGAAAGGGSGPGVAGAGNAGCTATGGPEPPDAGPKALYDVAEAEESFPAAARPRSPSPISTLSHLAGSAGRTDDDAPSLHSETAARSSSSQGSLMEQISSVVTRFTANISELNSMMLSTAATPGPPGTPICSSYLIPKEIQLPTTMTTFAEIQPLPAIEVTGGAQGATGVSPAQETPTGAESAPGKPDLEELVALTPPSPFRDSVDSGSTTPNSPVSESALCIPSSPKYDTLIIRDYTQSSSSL
T2 sequence (P31424 21-1203): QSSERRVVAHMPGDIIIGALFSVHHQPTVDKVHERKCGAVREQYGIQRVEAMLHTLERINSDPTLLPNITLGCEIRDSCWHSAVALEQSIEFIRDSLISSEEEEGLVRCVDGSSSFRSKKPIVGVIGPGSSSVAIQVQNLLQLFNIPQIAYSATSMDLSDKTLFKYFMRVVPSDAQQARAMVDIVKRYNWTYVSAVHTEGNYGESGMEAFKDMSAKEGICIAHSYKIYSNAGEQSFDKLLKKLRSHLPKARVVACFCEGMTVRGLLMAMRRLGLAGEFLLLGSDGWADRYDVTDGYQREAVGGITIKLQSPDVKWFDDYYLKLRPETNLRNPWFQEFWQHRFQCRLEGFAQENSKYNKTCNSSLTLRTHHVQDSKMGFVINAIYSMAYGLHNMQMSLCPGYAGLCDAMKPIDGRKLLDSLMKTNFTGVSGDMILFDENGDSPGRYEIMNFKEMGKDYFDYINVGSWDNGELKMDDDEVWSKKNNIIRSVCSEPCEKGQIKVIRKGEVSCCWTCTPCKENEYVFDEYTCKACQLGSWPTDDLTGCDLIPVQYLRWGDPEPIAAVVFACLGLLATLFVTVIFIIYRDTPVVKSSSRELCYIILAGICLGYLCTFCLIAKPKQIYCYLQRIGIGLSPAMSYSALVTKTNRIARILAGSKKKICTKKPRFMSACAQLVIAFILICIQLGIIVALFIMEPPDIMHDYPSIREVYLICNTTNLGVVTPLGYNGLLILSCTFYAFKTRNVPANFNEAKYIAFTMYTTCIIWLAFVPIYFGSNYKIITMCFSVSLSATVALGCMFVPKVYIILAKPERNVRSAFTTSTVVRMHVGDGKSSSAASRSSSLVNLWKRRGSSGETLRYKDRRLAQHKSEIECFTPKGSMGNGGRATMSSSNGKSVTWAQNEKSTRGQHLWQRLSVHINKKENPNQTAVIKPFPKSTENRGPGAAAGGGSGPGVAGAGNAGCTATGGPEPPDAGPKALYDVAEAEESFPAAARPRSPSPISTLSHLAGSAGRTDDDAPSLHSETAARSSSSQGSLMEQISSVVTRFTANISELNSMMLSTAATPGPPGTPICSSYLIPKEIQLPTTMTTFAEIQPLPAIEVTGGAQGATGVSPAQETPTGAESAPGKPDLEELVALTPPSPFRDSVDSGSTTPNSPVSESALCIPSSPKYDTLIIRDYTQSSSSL

Consider `Cc1oncc1C(=O)N1CCC[C@H](c2nc(-c3ccc(F)cc3)no2)C1` [Example 5, (S)-{3-[3-(4-Fluoro-phenyl)-[1,2,4]oxadiazol-5-yl]-piperidin-1-yl}-(5-methyl-isoxazol-4-yl)-methanone], for which the EC50 at rat mGluR5 was < 1000 nM. Further, the “increase in locomotor activity induced by amphetamine” value is recorded as “significantly attenuated” in test [1] (listed as compound # 5) and “significantly attenuate” in test [1] (listed as example 5).

With `O=C(c1ccc(F)nc1)N1CCC[C@H](c2nc(-c3ccc(F)cc3)no2)C1` [Example 29, (S)-{3-[3-(4-Fluoro-phenyl)-[1,2,4]oxadiazol-5-yl]-piperidin-1-yl}-(6-fluoro-pyridin-3-yl)-methanone], the 50% effective concentration (EC50) on rat mGluR5 was < 1000 nM. Besides, the IC50 on mGluR5 was < 30000 nM.
